Experimental data published in US20200383844A1, “ABSORBENT ARTICLE” (Kao Corporation, priority 2017, published 2020).

Tests used:
[1] = Spreading coefficient of liquid film cleavage agent; format: physicochemical; conditions: 25° C., RH 65%
Source text: (§1) Definitions of “spreading coefficient to the liquid having surface tension of 50 mN/m” and “water solubility” of the liquid film cleavage agent, as specified in the first aspect and the second aspect, and measuring methods of surface tension (γw) of a liquid film (liquid having surface tension of 50 mN/m), surface tension (γo) of a liquid film cleavage agent, interfacial tension (γwo) between the liquid film and the liquid film cleavage agent, and water solubility of the liquid film cleavage agent are as described in the paragraphs {0015} to {0022} in WO 2016/098796.
(§2) Hereinafter, the present invention will be described more in detail with reference to Examples, but the present invention is not limited thereto. In addition, both terms “part” and “%” in the Examples are based on mass unless otherwise noted. […]
(§3) On the occasion, as a “liquid having surface tension of 50 mN/m,” a solution was used, in which the solution was prepared by adding, to 100 g of deionized water, 3.75 μL of POE sorbitan monolaurate (trade name “RHEODOL Super TW-L120,” manufactured by Kao Corporation) being a nonionic surface active substance by a micropipette (trade name “ACURA 825,” manufactured by Socorex Isba SA), and adjusting the surface tension to 50±1 mN/m. Moreover, the water solubility was measured by adding the agent for every 0.0001 g.

[2] = Interfacial tension of liquid film cleavage agent; format: physicochemical; conditions: 25° C., RH 65%
Source text: as §1, §2, §3

[3] = Surface tension of liquid film cleavage agent; format: physicochemical; conditions: 25° C., RH 65%
[4] = Source text: as §1
Hereinafter, the present invention will be described more in detail with reference to Examples, but the present invention is not limited thereto. In addition, both terms “part” and “%” in the Examples are based on mass unless otherwise noted. […] In addition, a sign “-” in the following Tables means that neither an agent shown in a name of an item is used, nor the result has an applicable value in the item, or the like. Moreover, a leftward arrow “←” means that the content is the same as described in an adjacent column indicated by the arrow.
as §3

[5] = Viscosity of liquid film cleavage agent; format: physicochemical; conditions: 25° C., RH 65%, average of three
Method: First, 40 g of a liquid film cleavage agent is prepared. […] This operation is repeated three times, and an average value is adopted as the viscosity. In addition, when the liquid film cleavage agent is solid, the liquid film cleavage agent is heated to a temperature of a melting point of the liquid film cleavage agent plus 5° C. to induce phase transition into liquid, and the measurement is performed with keeping the temperature conditions.
As a result of measuring viscosity by the method shown in (Method for measuring viscosity of liquid film cleavage agent) described above, the viscosity of the liquid film cleavage agent was 163 cps.

Spreading coefficient to liquid having surface tension of 50 mN/m [1]	Interfacial tension to liquid having surface tension of 50 mN/m [2]	Surface tension [3]	Water solubility [4]	Viscosity [5]	Substance
5.4 mN/m	12.8 mN/m	31.8 mN/m	← g	129 cps	POP alkyl ether [POP(15) alkyl ether]
–	–	–	0.025 or less g	–	POP-modified dimethyl silicone [POP(12)-modified dimethyl silicone]
–	–	–	0.025 or less g	–	PPG
–	–	–	← g	–	epoxy-modified dimethyl silicone
